Data reported in PubChem BioAssay (NCI).
“And” between values parts separate entries of the source, which are not always exact repeats. Equal values may be shown once.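 Interpolation was linear, between the two tested concentrations surrounding the appropriate level; five concentrations were tested over 48 hours in 96-well plates. GI50 is the concentration that inhibits growth by half. TGI is the concentration that stops growth completely.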

Assays:
Assay in all cases: growth of human tumour cells (NCI), 48 h
[1] = system: SNB-75 CNS
[2] = system: SN12C renal
[3] = system: A498 renal
[4] = system: A549 NSCLC
[5] = system: SF-539 CNS
[6] = system: SK-MEL-5 melanoma
[7] = system: HT29 colon
[8] = system: SF-295 CNS
[9] = system: LOX IMVI melanoma
[10] = system: MALME-3M melanoma

Compound	GI50 [1]	TGI [1]	GI50 [2]	TGI [2]	GI50 [3]	TGI [3]	GI50 [4]	TGI [4]	GI50 [5]	TGI [5]	GI50 [6]	TGI [6]	GI50 [7]	TGI [7]	GI50 [8]	TGI [8]	GI50 [9]	TGI [9]	GI50 [10]	TGI [10]
COc1ccccc1CN=C1NC(=O)/C(=C/c2ccc3ncccc3c2)S1	3.9 µM	> 25 µM	7.8 µM	> 25 µM	4.49 µM	15.8 µM	6.93 µM	> 25 µM	5.28 µM	> 20.3 µM	12.4 µM	> 21.5 µM	8.45 µM	> 25 µM	5.7 µM	> 21 µM	7.38 µM	> 25 µM	> 25 µM	> 25 µM
O=c1/c(=C/c2ccccc2O)sc2nc3ccccc3n12		> 100 µM		> 100 µM		> 100 µM		> 100 µM		> 100 µM		> 100 µM		> 100 µM		> 100 µM		98.3 µM		> 100 µM
Cc1cc(C)nc(NS(=O)(=O)c2ccc(Nc3nc4nc(NCc5ccccc5)nc(-c5ccc(O)cc5)c4c(=O)[nH]3)cc2)n1	64.6 µM	> 100 µM	25.1 µM	> 100 µM	24.5 µM	> 100 µM	18.9 µM	> 100 µM	> 100 µM	> 100 µM	25.7 µM	> 100 µM	57.9 µM	> 100 µM	16.7 µM	95 µM	25.2 µM	> 100 µM	32.8 µM	> 100 µM
C/C(=N\NC(=O)C[n+]1ccccc1)c1sc(-c2nc(C)c(/C(C)=N/NC(=O)C[n+]3ccccc3)s2)nc1C		> 100 µM		> 100 µM		> 100 µM		> 100 µM		> 100 µM		> 100 µM		> 100 µM		> 100 µM		> 100 µM		> 100 µM
Nc1nc(=O)c2[nH]cnc2n1O		> 100 µM		> 100 µM		> 100 µM		> 100 µM		> 100 µM		> 100 µM		> 100 µM		> 100 µM		> 100 µM		> 100 µM
Cc1cc(NCCCNc2ccnc3cc(Cl)ccc23)nc(Nc2ccc(C(=O)N3CCCCC3)cc2)n1	1.69 µM	3.69 µM	2.33 µM	5.52 µM	1.89 µM	5.07 µM	3.56 µM	10.4 µM	1.89 µM	3.56 µM	1.93 µM	3.34 µM	2.33 µM	7.2 µM	2.02 µM	3.89 µM	1.82 µM	3.57 µM	2.34 µM	4.15 µM
O=c1[nH]ccc2nc(N3CCC(O)CC3)nc(Nc3ccc(N4CCOCC4)cc3)c12	2.39 µM	12.1 µM	2.55 µM	> 100 µM	1.49 µM	9.77 µM	3.9 µM	> 100 µM	2.85 µM	11.2 µM	3.69 µM	> 50.8 µM	1.06 µM	> 100 µM	> 100 µM	> 100 µM	1.38 µM	> 100 µM	1.61 µM	> 63 µM
COc1ccc(-c2cc(=O)c3c(OC)c(O)c(OC)cc3o2)cc1		> 100 µM		> 100 µM		88.5 µM		> 100 µM		> 100 µM		94.9 µM		> 100 µM		> 100 µM		> 100 µM		> 100 µM
CCOC(=O)NC(=O)c1cn(CC(=O)NCC(=O)NCC(=O)N2CCN(CCn3c(C)nc(C(N)=O)c3N)CC2)c(=O)[nH]c1=O		> 100 µM		> 100 µM		> 100 µM		> 100 µM		> 100 µM		> 100 µM		> 100 µM		> 100 µM		> 100 µM		> 100 µM
NC(N)=NS(=O)(=O)c1ccc(NC(=O)c2cccn3c(=O)c4ccccc4nc23)cc1		> 100 µM		> 100 µM		> 100 µM		> 100 µM		> 100 µM		> 100 µM		> 100 µM		> 100 µM		> 100 µM		> 100 µM
Cc1cc(Cl)ccc1NC(=O)C1C(=O)C(=O)N(c2ccc(Cl)cc2C)C1=O (stereo unspecified)		> 100 µM		> 100 µM		> 100 µM		> 100 µM		> 100 µM		> 100 µM		> 100 µM		> 100 µM		> 100 µM		> 100 µM
O=C(/C=C/c1ccccc1)Nc1ncc(Cc2ccccc2)s1	0.138 µM	1.99 µM	0.597 µM	> 52 µM	0.24 µM	3.39 µM	0.322 µM	> 55.1 µM	0.206 µM	0.732 µM	0.196 µM	10.1 µM	0.138 µM	> 32.8 µM	0.202 µM	1.96 µM	0.139 µM	> 23.2 µM	1.08 µM	> 100 µM
CCOc1cccc2sc(N)nc12		> 100 µM		> 100 µM		> 100 µM		> 100 µM		> 100 µM		> 100 µM		> 100 µM		> 100 µM		> 100 µM		> 100 µM
COc1cccc(-c2cc(=O)c3cc(C)c(C)c(C(=O)O)c3o2)c1		92.7 µM		> 100 µM		> 100 µM		> 100 µM		> 100 µM		> 100 µM		> 100 µM		> 100 µM		> 100 µM		> 100 µM
Cc1ccc(C(=O)Nc2ccc(CN3CCN(C)CC3)c(C(F)(F)F)c2)cc1C#Cc1cnc(N)c2ccc(C#N)cc12	0.0468 µM	13.4 µM	0.0164 µM	3.07 µM	0.133 µM	49.3 µM	0.917 µM	12.8 µM	3.52 µM	12.3 µM	0.331 µM	6.1 µM	0.211 µM		8.85 µM	> 50 µM	0.0419 µM	6.79 µM	0.0237 µM	0.694 µM
COc1ccc2c3c(ccc2c1)NC(C(=O)O)CC3 (stereo unspecified)		> 100 µM		> 100 µM		> 100 µM		> 100 µM		> 100 µM		64.7 µM		> 100 µM		> 100 µM		> 100 µM		> 100 µM

Compound	GI50 [1]	TGI [1]	GI50 [2]	TGI [2]	GI50 [3]	TGI [3]	GI50 [4]	TGI [4]	GI50 [5]	TGI [5]	GI50 [6]	TGI [6]	GI50 [7]	TGI [7]	GI50 [8]	TGI [8]	GI50 [9]	TGI [9]	GI50 [10]	TGI [10]
C/C(=N\NC(=O)c1cccc(S(=O)(=O)N2CCN(C)CC2)c1)c1cc(Cl)ccc1O	0.648 µM	32.3 µM	1.19 µM	> 100 µM	40.6 µM	> 100 µM	0.761 µM	> 100 µM	1.06 µM	21.8 µM	1.29 µM	3.87 µM	0.397 µM	20.1 µM	0.998 µM	21.9 µM	0.518 µM	13 µM	2.39 µM	36.6 µM
C[C@@]1([C@H](OC(=O)c2cccc3ccccc23)C(N)=O)CO1	5.9 µM	37.1 µM	0.36 µM	3.95 µM	16.2 µM	34 µM	2.12 µM	> 20.7 µM	0.642 µM	2.33 µM	2.01 µM	5.75 µM	1.05 µM	> 24 µM	0.427 µM	9.28 µM	0.316 µM	1.62 µM	3.18 µM	11.2 µM
CC(C)COC(=O)N1N=NC2C3CC(=O)C(O3)C21 (stereo unspecified)		> 100 µM		> 100 µM		> 100 µM		> 100 µM		> 100 µM		> 100 µM		> 100 µM		> 100 µM		> 100 µM		> 100 µM
CC(=O)O[C@H]1CC[C@@]2(C)C(=CC[C@@H]3C2CC[C@]2(C)C(=O)NC(=O)CC32)C1 (stereo partly specified)		> 100 µM		> 100 µM		> 100 µM		> 100 µM		> 100 µM		> 100 µM		> 100 µM		> 100 µM		> 100 µM		> 100 µM
CS(=O)(=O)OCCCCOS(C)(=O)=O	431 µM	221 µM and > 1000 µM	623 µM	250 µM and > 1000 µM	> 883 µM	249 µM and > 1000 µM	538 µM	243 µM and > 1000 µM	437 µM	250 µM and > 1000 µM	520 µM	242 µM and > 1000 µM	> 846 µM	250 µM and > 1000 µM	423 µM	237 µM and > 1000 µM	5.96 µM	248 µM and > 1000 µM	> 1000 µM	250 µM and > 1000 µM
COc1ccc2nc(-c3ccc(Cl)cc3)cc(-c3nnc(SCC(=O)Nc4ccc(/C(C)=N\O)cc4)o3)c2c1	1.08 µM	6.34 µM	1.8 µM	7.29 µM	2.94 µM	11 µM	1.23 µM	3.21 µM	3 µM	10.7 µM	1.71 µM	7.52 µM	1.4 µM	5.54 µM	1.09 µM	3.08 µM	1.76 µM	6.92 µM	1.28 µM	3.97 µM
CC(C)C[C@H](NC(=O)[C@H](Cc1ccccc1)NC(=O)c1cnccn1)B(O)O	0.00232 µM	0.0266 µM and 0.00698 µM	< 0.0114 µM and 0.00194 µM		0.000833 µM	< 0.01 µM and 0.00352 µM	< 0.0112 µM and 0.00362 µM	5.02 µM and 0.615 µM	0.00119 µM	< 0.01 µM and 0.00271 µM	< 0.01 µM and 0.0014 µM	0.014 µM and 0.00411 µM	0.00166 µM		0.00215 µM		0.00135 µM	< 0.0129 µM and 0.00413 µM	0.00116 µM	< 0.0454 µM and 0.0194 µM
COc1ccc2c(c1)[n+]([O-])c(/C(C)=N/NC(N)=S)c(C)[n+]2[O-]		> 100 µM		> 100 µM		> 100 µM		> 100 µM		97.9 µM		> 69.1 µM		> 100 µM		> 100 µM		> 100 µM		> 100 µM
Nc1c(C(=O)c2cccc(C(O)(CO)CO)c2)cnn1-c1ccc(F)cc1	> 25 µM	> 25 µM	> 25 µM	> 25 µM	> 25 µM	> 25 µM	> 25 µM	> 25 µM	> 25 µM	> 25 µM	> 25 µM	> 25 µM	> 25 µM	> 25 µM	> 25 µM	> 25 µM	> 25 µM	> 25 µM	> 25 µM	> 25 µM
CN1CCN2c3ccccc3CC(C#N)(C#N)C2C1 (stereo unspecified)		> 100 µM		> 100 µM		> 100 µM		> 100 µM		> 100 µM		> 100 µM		> 100 µM		> 100 µM		> 100 µM		> 100 µM
O=C1c2cccc3c([N+](=O)[O-])ccc(c23)C(=O)N1CCCCl	2.86 µM	> 10 µM	5 µM	> 10 µM	> 10 µM	> 10 µM	> 10 µM	> 10 µM	> 10 µM	> 10 µM	> 10 µM	> 10 µM	4.25 µM	> 10 µM	> 10 µM	> 10 µM	1.47 µM	2.96 µM	9.77 µM	> 10 µM
CCOC(=O)C1Nc2ccc([N+](=O)[O-])cc2[C@H]2OCC[C@@H]12 (stereo partly specified)		> 100 µM		> 100 µM		> 100 µM		> 100 µM		> 100 µM		> 100 µM		> 100 µM		> 100 µM		> 100 µM		> 100 µM
O=C1C[C@@H]2[C@@H](C=CC23CC3)N1O		> 100 µM		> 100 µM		> 100 µM		> 100 µM		> 100 µM		> 100 µM		> 100 µM		> 100 µM		> 100 µM		> 100 µM
OCCNC(=S)Nc1ccc(-c2nc(N3C[C@H]4CC[C@@H](C3)O4)c3cccn3n2)cc1	< 0.0124 µM	0.264 µM	0.0617 µM	16.9 µM	< 0.01 µM	0.0307 µM	0.0856 µM	2.75 µM	0.108 µM	0.767 µM	0.0668 µM	0.642 µM	0.117 µM	22.5 µM	0.0328 µM	0.265 µM	0.202 µM	7.65 µM	< 0.01 µM	0.055 µM
COc1ccc(C2CC(c3ccc4ccccc4c3)=NN2/C=C2\SC(=S)N(NC(=O)Cc3ccccc3Nc3c(Cl)cccc3Cl)C2=O)cc1 (stereo unspecified)	0.257 µM	1.4 µM	0.647 µM	> 48.9 µM	0.302 µM	0.99 µM	0.507 µM	> 47.2 µM	0.282 µM	1.12 µM	0.484 µM	> 36.9 µM	2.3 µM	> 26.3 µM	0.724 µM	> 32.7 µM	0.556 µM	> 54 µM	1.34 µM	> 49 µM
